Measured values published in patent US6521656B1, “Remedies for male sterility” (Fujisawa Pharmaceutical Co., Ltd., priority 1998, dated 2003).

System: human sperm
Assay: Test for evaluation of the promoting effect on the induction of sperm acrosomal reaction (FITC-concanavalin A fluorescence staining)
Format: cell-based
Conditions: for acrosomal reaction induction rate (%): incubation time 3; for induction of acrosomal reaction: human sperm, summary in words
Method: Percoll for sperm washing was isotonized and adjusted to 90% with 20 mM Hepes buffered Hanks solution (pH 7.4; supplemented with 1.0 mg/ml BSA). The ejaculated human seminal fluid was allowed to liquefy at room temperature, diluted 2-fold with Hanks solution, and layered on 6.0 ml Percoll. In the Percoll layer, a glass capillary had been inserted in advance. The system was centrifuged at 1000×g for 30 minutes to precipitate motile sperm. The precipitated sperm was aspirated through the capillary and recovered. The sperm was resuspended in Hanks solution at a final concentration of about 50×10^6/ml and cultured at 37° C.
The human sperm acrosomal reaction was monitored by a fluorescence staining technique using FITC-concanavalin A.
As the acrosomal cap splits off on acrosomal reaction, the membrane protein rich in the high-mannose sugar chain on the acrosomal tunica intima becomes exposed. Therefore, the sperm showing a yellow fluorescence in the anterior half of the head was regarded as acrosomal reaction-induced sperm.
Compound A was added to the sperm suspension at a final concentration of 10^−6 or 10^−7 M. Observation was made in the group supplemented with 1 I.U./ml of adenosine deaminase and the non-enzyme-addition group.
Compounds B and C were respectively added to the sperm suspension at a final concentration of 10^−7 M. Observation was made in the groups supplemented with 1 I.U./ml of adenosine deaminase.
Each figure denotes the acrosomal reaction induction rate (%) (the mean±S.E. of 3 observations in Table 1; the mean±S.E. of 5 observations in Tables 2 and 3). In Table 1, the figure in the top row represents the result obtained in the absence of adenosine deaminase and the figures in the bottom row represent the results in the presence of adenosine deaminase.

Structure (SMILES)	acrosomal reaction induction rate (%) (Compound B 10^−7 M, supplemented with 1 I.U./ml adenosine deaminase, mean±S.E. of 5 observations)	induction of acrosomal reaction	acrosomal reaction induction rate (%) (Compound A 10^−6 M, absence of adenosine deaminase, mean±S.E. of 3 observations)	acrosomal reaction induction rate (%) (Compound A 10^−6 M, presence of adenosine deaminase 1 I.U./ml, mean±S.E. of 3 observations)	acrosomal reaction induction rate (%) (Compound A 10^−7 M, absence of adenosine deaminase, mean±S.E. of 3 observations)	acrosomal reaction induction rate (%) (Compound A 10^−7 M, presence of adenosine deaminase 1 I.U./ml, mean±S.E. of 3 observations)	acrosomal reaction induction rate (%) (Compound C 10^−7 M, supplemented with 1 I.U./ml adenosine deaminase, mean±S.E. of 5 observations)
O=C(O)C[C@H]1CCCCN1C(=O)C=Cc1c(-c2ccccc2)nn2ccccc12 (single isomer, unassigned) [Compound B]	41.26 ± 2.18	promoted					
O=C(O)CCCn1nc(-c2c(-c3ccccc3)nn3ccccc23)ccc1=O [Compound A, 3-[2-(3-Carboxypropyl)-3-oxo-2,3-dihydropyridazin-6-yl]-2-phenylpyrazolo[1,5-a]pyridine]		promoted	43.7 ± 2.77	63.6 ± 1.84	47.1 ± 2.37	64.1 ± 1.73	
O=C(O)CC1=C(n2nc(-c3c(-c4ccccc4)nn4ccccc34)ccc2=O)CCCC1 [Compound C, 3-[2-(2-Carboxymethyl-1-cyclohexenyl)-3-oxo-2,3-dihydropyridazin-6-yl]-2-phenylpyrazolo[1,5-a]pyridine]		promoted					48.86 ± 2.57
